Values quoted from earlier work in patent US6344433B1, “Long-acting disinfectant and its preparation method” (priority 1999, dated 2002).

Settings: crystal powder

Question: With Oc1cc(Cl)ccc1Oc1ccc(Cl)cc1Cl [HD244, 2,4,4′-trichloro-2′-hydroxy diphenyl ether] as the compound, how does the solubility in water read?
Answer: hardly soluble in water
